# Assay results as given in US5079231A, “Immunostimulating peptides, a process for their preparation and pharmaceutical compositions containing them” (Ellem Industria Farmaceutica S.p.A., priority 1988, dated 1992).
# No end group written: not given here.
# How the values were obtained:
# [1] = Resistance to the in vitro simulated gastric ambient; assay type: in vitro ADME; details: 37° C., 3 hours, gastric simulated juice USP XXl (HCl+pepsin)
# Protocol: Resistance to the in vitro simulated gastric ambient
# The hexapeptides Arg-Lys-Glu-Arg-Ala-Arg and Arg-Ala-Arg-Arg-Lys-Glu are stable at 37° C. for 3 hours in in vitro simulated gastric ambient using the gastric simulated juice USP XXl (HCl+pepsin).
# [2] = system: T-lymphocytes; details: known peptides, earlier patent applications and literature; cited from earlier work
# [3] = known tripeptides; cited from earlier work
Substance,Resistance to the in vitro simulated gastric ambient [1],immunostimulating activity (maturation and functionality of T-lymphocytes) [2],stability to the in vitro simulated gastric juice [3]
"RKERAR [ARG--LYS--GLU--ARG--ALA--ARG, Arg-Lys-Glu-Arg-Ala-Arg]",stable,,
Arg-Gly-Asp,,displays a similar behaviour,
Arg-Ala-Arg,,endowed with immunostimulating activity,stable
Arg-Lys-Asp,,displays a similar behaviour,
"RARRKE [ARG--ALA--ARG--ARG--LYS--GLU, Arg-Ala-Arg-Arg-Lys-Glu]",stable,,
Arg-Lys-Glu,,has immunostimulating properties,stable
